# How the values were obtained:
# [1] = biological target: T1, ADSS from E. coli (Escherichia coli, UniProt P0A7D4); test: ADSS enzyme assay, E. coli ADSS; format: biochemical; settings: E. coli ADSS (FIG. 6)
# T1 construct: endogenous in cells; host or cells: E. coli
# Protocol: (§1) ADSS is obtained from 4-5 day old, etiolated seedlings of Zea mays. Seedlings are homogenized in a Waring blender with an equal volume (grams of tissue=mls of buffer) of extraction buffer containing 50 mM EPPS, pH 7.5, 5 mM MgCl2, 0.1 mM EDTA, 5 mM sodium bisulfite, 5 mM DTT, 0.1 mM phenylmethanesulfonyl fluoride and 10% glycerol. The extract is expressed through Miracloth (Calbiochem, La Jolla, Calif.) sandwiched between layers of cheesecloth. To precipitate phenolics and nucleic acids, 0.2 to 0.4% w/v protamine sulfate is added to the extract. The extract is stirred for 30 minutes, and then centrifuged at 45,000×G for 60 minutes. The resulting supernatant is fractionated with ammonium sulfate. Proteins are retained which precipitate at concentrations of ammonium sulfate greater than 45% saturation, but less than 55% saturation. Similar methods are used to isolate ADSS from wheat germ, E. coli and rat liver. ADSS activity is further purified by subjecting the preparation to DEAE cellulose chromatography. The column is equilibrated with chromatography buffer consisting of 50 mM EPPS, pH 7.5, 10% glycerol, 0.1 mM EDTA, 5 mM MgCl2 and 1 mM DTT. After loading the enzyme preparation, the column is washed with two bed volumes of the chromatography buffer, then eluted with a linear, 10-bed-volume gradient of 0 to 0.4M KCl dissolved in the same buffer. The peak of ADSS activity elutes at a KCl concentration of about 150 mM. Fractions containing activity are pooled and the proteins concentrated by ultrafiltration. At this stage, the enzyme is suitable for high capacity screening tests that are designed to discover inhibitory compounds. Alternatively, hydrophobic interaction chromatography can be used instead of DEAE-cellulose. This material is optionally further purified by passage through a column of Sephadex G-75 equilibrated with the chromatography buffer described above. The peak of ADSS activity elutes at a retention volume corresponding to a molecular weight of approximately 50,000 Da.
# (§2) ADSS is assayed by anion exchange HPLC and by a continuous spectrophotometric assay. For the former, enzyme is diluted appropriately with 50 mM EPPS, pH 8.3, 10% ethylene glycol, 10 mM potassium phosphate and 1 mM MgCl2 to a volume of 92 μL. […] The column eluate is monitored at 270 nm using a Perkin-Elmer LC 480 diode array detector. Integrated peaks are quantified from standard curves. Identity of the products of the ADSS reaction, GDP and adenylosuccinate, are determined by comparing their retention times and spectra with those of authentic standards, purchased from Sigma Chemical Co.
# (§3) For the spectrophotometric assay, reaction mixtures are the same as above, except that the volume is doubled. […] This method of quantification was validated using the HPLC method.
# [2] = tested on: Arabidopsis seeds; test: Arabidopsis reversal assay with antidote compounds; format: in vivo; settings: for Growth, % of Control: probe compound at 1.5× lethal concentration
# Protocol: The solutions are filter sterilized prior to addition. FIG. 4 represents a typical set up in a reversion assay for discovering inhibitors of AMP biosynthesis.
# The left side (columns 1-3) of the 24-well microtiter plate is designed for controls, and the right side (columns 4-6) are designated for one probe compound. […] Rows B,C and D are supplemented with three doses of an antidote for the control and probe compound. […] The three doses are 50,100 and 150 μl respectively.
# Forty ml of Arabidopsis growth media as described in Example 1 is sterilized and allowed to cool to about 45° C. A probe compound (at 1.5× lethal concentration) is added to columns 4 through 6 (right half of the plate). Media is distributed at 1.0 ml per well to all wells. Sterile seeds are added to each well as described above. As in Example 1, the plate is incubated and growth is scored.
# [3] = tested on: Arabidopsis seeds; test: Arabidopsis bioassay, determination of the lethal concentration (LC 90); settings: Arabidopsis thaliana, 168 h, read-out: lethal concentration (LC 90)
# [4] = biological target: T2, ADSS from rat liver (Rattus norvegicus, UniProt D4AEP0); test: ADSS enzyme assay, rat liver ADSS; format: biochemical; settings: rat liver ADSS (FIG. 6)
# T2 construct: from tissue; host or cells: rat liver
# Protocol: as §1, §2, §3
# [5] = tested on: adenylosuccinate lyase (ASL); test: Assay of adenylosuccinate lyase (ASL); format: biochemical, Zea mays; settings: 1 mM concentration (data not shown)
# Protocol: ASL is obtained from three day old, etiolated seedlings of Zea mays (maize). Seedlings are homogenized in a Waring blender with an equal volume (grams of tissue=mls of buffer) of 20 mM potassium phosphate buffer (KP buffer) containing 1 mM DTT. The slurry is then filtered through a cheese cloth and the filtrate subjected to 100,000×g centrifugation for 60 minutes. The clear supernatant is used for assaying ASL activity.
# A typical reaction mixture in 1 mL contains 100-300 μL of ASL and 0.15 mM adenylosuccinate (30 μL of a 5 mM solution in KP buffer), the rest being KP buffer. Disappearance of absorbance at 280 nm is followed as a function of time to determine the rate of ASL activity. Inhibitors when needed are included to a final concentration of 1 mM in the assay mixture to observe the effect on the ASL activity. Compounds hydantocidin, N-acetylhydantocidin, NAP-H and hadacidin had no effect on the rate of ASL activity at 1 mM concentration (data not shown).
# [6] = tested on: glutamine synthetase; settings: background statement; cited from earlier work
# [7] = background statement; cited from earlier work
# T2 sequence (D4AEP0 1-456): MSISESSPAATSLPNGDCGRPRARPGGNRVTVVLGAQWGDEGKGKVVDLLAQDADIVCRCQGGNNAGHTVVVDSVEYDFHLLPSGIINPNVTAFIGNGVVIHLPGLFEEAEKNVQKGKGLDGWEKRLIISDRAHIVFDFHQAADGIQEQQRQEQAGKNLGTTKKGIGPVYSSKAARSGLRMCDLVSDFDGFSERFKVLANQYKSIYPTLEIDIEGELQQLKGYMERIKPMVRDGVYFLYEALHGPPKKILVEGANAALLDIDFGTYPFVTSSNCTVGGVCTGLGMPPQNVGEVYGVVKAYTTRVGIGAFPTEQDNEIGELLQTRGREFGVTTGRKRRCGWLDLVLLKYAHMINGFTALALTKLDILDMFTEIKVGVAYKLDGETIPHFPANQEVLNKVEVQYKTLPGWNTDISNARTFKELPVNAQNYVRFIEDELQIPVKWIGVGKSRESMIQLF
# T1 sequence (P0A7D4 2-432): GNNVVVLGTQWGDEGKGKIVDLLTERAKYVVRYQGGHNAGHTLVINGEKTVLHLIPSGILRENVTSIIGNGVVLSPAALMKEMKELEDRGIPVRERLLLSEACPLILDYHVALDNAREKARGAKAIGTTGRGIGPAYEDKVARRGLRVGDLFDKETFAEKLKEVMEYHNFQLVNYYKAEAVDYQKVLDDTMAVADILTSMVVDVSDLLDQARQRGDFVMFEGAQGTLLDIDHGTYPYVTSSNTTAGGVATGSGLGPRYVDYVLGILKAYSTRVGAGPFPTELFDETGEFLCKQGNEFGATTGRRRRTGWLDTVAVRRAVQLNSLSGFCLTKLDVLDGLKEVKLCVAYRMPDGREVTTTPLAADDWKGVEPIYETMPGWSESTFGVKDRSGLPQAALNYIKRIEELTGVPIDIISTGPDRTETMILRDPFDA
compound,measurement,setting,value
"O=C1NC(=O)C2(N1)O[C@H](CO)[C@@H](O)[C@H]2O (single isomer, unassigned) [hydantocidin, Hydantocidin]",inhibition of ADSS (in words),[1],neither the E. coli nor the rat liver ADSS are inhibited
same,"Growth, % of Control","[2]; No antidote, 0 mM",0%
same,"Growth, % of Control",[2]; antidote ADP 0.5-5.0 mM,100%
same,"Growth, % of Control",[2]; antidote AMP 0.5-5.0 mM,100%
same,"Growth, % of Control",[2]; antidote ATP 0.5-5.0 mM,40%
same,"Growth, % of Control",[2]; antidote Adenine 0.5-5.0 mM,60%
same,"Growth, % of Control",[2]; antidote Adenosine 0.5-5.0 mM,80-100%
same,"Growth, % of Control",[2]; antidote Adenosine + Guanosine 0.5-5.0 mM,80%
same,"Growth, % of Control",[2]; antidote Cytidine + Uridine 0.5-5.0 mM,0%
same,"Growth, % of Control",[2]; antidote Guanine 0.5-5.0 mM,0%
same,"Growth, % of Control",[2]; antidote Guanosine 0.5-5.0 mM,0%
same,"Growth, % of Control",[2]; antidote Hypoxanthine 0.5-5.0 mM,0%
same,"Growth, % of Control",[2]; antidote IMP 0.5-5.0 mM,5%
same,reversal of growth inhibition (in words),"[2]; antidote IMP, doses 50, 100 and 150 μl",did not reverse growth inhibition
same,reversal of growth inhibition (in words),"[2]; antidotes adenosine and AMP, rows B and C, wells 4 through 6",Complete growth is observed
same,reversal of inhibition at the lethal concentration (in words),"[2]; in the presence of AMP, ADP or adenine",completely reversed
same,growth without the antidote (in words),"[2]; probe compound alone, no antidote",Growth is not observed
same,IC90,[3],~2000 nM
same,inhibition of ADSS (in words),[4],neither the E. coli nor the rat liver ADSS are inhibited
same,effect on the rate of ASL activity,[5],no effect
same,inhibition of glutamine synthetase (in words),[6],not inhibited
same,reversal of growth inhibition by aromatic amino acids (in words),[7],not reversed

# Source: patent publication US5780254A, “Method for detection of herbicides” (Sandoz Ltd, priority 1996, dated 1998)
